We go through nine molecules from ChEMBL document CHEMBL3991601, “The target landscape of clinical kinase drugs” (Science, 2017).

Active and inactive are the calls of the source. Rule as the data show it, for most assays here: actives have a measured Kd and inactives only a lower limit. A value given as a limit tells only on which side of the number the result lay.

In test [1] the target is Tyrosine-protein kinase ABL1 (Homo sapiens, UniProt P00519).
For test [2], the target named is Macrophage-stimulating protein receptor (Homo sapiens, UniProt Q04912).
Sequence of Macrophage-stimulating protein receptor (Q04912 25-304 limits assumed): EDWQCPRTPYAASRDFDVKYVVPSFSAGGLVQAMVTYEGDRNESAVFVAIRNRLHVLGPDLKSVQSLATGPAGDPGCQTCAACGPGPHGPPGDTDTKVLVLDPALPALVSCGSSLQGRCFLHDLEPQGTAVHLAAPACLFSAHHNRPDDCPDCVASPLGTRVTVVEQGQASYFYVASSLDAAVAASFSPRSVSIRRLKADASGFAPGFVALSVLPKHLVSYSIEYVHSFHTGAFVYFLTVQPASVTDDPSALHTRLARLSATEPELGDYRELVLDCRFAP
Sequence of Macrophage-stimulating protein receptor (Q04912 310-1400 limits assumed): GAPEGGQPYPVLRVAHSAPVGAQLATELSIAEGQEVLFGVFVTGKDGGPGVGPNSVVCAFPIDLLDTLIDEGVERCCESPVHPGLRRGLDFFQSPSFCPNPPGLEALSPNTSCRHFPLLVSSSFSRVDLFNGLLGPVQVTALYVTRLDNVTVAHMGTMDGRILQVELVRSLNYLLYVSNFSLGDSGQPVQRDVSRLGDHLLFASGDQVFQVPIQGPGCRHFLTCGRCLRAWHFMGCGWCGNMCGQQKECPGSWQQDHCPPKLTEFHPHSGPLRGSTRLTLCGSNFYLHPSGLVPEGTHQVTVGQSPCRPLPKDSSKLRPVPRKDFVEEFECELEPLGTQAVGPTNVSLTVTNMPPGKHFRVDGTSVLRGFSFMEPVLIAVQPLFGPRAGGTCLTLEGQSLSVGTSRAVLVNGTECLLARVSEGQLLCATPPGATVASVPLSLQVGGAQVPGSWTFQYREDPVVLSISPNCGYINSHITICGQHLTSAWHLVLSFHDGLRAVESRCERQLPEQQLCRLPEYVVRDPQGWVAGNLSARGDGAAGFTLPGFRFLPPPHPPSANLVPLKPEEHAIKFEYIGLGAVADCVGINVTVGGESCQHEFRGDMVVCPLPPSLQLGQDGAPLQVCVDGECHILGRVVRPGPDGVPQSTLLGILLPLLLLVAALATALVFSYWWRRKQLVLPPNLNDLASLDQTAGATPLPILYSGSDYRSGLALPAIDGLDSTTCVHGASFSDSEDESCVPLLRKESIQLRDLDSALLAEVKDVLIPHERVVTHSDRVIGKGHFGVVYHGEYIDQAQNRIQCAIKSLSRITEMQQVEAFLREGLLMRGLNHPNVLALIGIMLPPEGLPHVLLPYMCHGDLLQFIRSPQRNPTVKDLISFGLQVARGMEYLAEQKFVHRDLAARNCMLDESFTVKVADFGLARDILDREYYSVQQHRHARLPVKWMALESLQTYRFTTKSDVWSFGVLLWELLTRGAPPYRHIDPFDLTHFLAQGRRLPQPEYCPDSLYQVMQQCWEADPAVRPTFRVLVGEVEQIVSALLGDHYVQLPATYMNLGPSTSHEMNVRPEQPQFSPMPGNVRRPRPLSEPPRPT
The target of test [3] is cAMP-dependent protein kinase catalytic subunit alpha (Homo sapiens, UniProt P17612).
In test [4] the target is Tyrosine-protein kinase CSK (Homo sapiens, UniProt P41240).
Sequence of Tyrosine-protein kinase CSK (P41240 whole entry): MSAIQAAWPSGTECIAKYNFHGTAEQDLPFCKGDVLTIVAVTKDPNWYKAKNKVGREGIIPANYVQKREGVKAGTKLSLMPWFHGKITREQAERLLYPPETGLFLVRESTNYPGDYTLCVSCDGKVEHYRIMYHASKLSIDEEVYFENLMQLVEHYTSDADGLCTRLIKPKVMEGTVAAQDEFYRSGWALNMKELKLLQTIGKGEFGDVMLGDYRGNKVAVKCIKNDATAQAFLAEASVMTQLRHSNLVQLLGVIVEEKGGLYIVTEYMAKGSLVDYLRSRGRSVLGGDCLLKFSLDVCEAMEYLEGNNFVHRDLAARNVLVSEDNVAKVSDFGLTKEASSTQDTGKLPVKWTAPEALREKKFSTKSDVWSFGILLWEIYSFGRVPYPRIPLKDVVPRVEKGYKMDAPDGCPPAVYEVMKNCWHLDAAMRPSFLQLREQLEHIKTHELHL
The next test has as its target T1, Activin receptor type-1 (Homo sapiens, UniProt Q04771).
T1 sequence (Q04771 whole entry): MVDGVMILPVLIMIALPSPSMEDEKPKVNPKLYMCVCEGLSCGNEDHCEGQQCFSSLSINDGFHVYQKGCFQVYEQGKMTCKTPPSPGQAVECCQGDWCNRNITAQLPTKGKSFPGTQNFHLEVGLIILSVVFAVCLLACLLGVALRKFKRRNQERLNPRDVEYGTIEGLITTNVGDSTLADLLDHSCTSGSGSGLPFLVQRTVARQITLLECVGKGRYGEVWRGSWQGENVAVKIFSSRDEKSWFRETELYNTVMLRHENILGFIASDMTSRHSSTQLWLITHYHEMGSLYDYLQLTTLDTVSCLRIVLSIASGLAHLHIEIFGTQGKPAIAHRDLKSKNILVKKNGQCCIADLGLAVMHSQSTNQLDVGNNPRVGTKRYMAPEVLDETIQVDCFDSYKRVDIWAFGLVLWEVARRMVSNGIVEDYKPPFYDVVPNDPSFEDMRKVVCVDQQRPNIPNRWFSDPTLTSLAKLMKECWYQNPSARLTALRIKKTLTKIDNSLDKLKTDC

In test [5] the target is Ribosomal protein S6 kinase alpha-4 (Homo sapiens, UniProt O75676).
Sequence of Ribosomal protein S6 kinase alpha-4 (O75676 whole entry): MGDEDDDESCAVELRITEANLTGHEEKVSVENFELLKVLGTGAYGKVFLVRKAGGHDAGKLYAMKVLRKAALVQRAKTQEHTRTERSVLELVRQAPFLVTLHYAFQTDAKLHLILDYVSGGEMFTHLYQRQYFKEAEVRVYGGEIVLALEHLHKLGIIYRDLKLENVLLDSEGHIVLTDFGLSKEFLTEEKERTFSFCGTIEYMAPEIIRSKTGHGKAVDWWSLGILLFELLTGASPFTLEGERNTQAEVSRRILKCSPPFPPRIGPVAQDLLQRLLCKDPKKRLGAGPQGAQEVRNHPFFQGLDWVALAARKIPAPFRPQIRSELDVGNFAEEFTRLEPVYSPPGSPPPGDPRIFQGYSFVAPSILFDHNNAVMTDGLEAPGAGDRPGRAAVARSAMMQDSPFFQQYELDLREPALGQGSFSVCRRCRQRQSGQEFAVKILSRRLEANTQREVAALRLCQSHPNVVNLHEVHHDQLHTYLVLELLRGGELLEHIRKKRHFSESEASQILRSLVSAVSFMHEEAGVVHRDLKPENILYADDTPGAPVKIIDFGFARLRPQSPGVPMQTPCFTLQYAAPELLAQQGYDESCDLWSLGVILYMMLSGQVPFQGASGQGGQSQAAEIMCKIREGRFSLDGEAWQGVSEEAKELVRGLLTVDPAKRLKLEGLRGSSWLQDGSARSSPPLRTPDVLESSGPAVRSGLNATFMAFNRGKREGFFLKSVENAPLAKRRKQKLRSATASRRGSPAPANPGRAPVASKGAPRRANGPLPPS
For test [6], the target named is T2, Delta(24)-sterol reductase (Homo sapiens, UniProt Q15392).
T2 sequence (Q15392 whole entry): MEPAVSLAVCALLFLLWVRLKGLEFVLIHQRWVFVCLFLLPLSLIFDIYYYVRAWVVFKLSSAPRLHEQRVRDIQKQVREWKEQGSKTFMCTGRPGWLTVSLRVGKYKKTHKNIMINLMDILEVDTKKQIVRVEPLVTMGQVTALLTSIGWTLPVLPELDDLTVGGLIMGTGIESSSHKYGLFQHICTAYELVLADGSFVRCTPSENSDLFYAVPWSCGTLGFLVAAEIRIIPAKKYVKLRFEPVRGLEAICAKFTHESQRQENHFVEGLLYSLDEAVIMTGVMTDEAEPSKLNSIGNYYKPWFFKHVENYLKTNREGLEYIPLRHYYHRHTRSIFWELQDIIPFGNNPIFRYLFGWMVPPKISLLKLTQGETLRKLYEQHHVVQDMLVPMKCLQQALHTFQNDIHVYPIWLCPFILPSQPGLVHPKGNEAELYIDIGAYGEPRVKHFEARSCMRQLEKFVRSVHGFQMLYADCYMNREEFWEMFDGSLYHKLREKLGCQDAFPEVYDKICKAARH

Test [7] deals with Tyrosine-protein kinase Fyn (Homo sapiens, UniProt P06241).
Sequence of Tyrosine-protein kinase Fyn (P06241 whole entry): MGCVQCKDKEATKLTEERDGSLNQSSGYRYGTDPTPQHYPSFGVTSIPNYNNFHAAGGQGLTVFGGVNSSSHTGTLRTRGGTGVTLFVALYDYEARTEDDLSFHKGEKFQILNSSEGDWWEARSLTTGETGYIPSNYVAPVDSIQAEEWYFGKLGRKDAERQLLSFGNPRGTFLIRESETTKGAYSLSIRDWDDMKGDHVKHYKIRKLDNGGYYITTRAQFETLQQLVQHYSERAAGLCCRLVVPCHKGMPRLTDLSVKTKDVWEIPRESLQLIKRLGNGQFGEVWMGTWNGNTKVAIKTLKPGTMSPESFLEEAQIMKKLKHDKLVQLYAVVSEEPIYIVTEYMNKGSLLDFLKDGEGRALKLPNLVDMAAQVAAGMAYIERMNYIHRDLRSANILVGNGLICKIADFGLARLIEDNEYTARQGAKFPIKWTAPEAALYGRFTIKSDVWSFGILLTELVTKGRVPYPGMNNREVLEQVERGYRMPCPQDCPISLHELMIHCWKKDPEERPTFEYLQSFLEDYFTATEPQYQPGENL
For test [8], the target named is T3, ATP-dependent RNA helicase DDX42 (Homo sapiens, UniProt Q86XP3).
T3 sequence (Q86XP3 whole entry): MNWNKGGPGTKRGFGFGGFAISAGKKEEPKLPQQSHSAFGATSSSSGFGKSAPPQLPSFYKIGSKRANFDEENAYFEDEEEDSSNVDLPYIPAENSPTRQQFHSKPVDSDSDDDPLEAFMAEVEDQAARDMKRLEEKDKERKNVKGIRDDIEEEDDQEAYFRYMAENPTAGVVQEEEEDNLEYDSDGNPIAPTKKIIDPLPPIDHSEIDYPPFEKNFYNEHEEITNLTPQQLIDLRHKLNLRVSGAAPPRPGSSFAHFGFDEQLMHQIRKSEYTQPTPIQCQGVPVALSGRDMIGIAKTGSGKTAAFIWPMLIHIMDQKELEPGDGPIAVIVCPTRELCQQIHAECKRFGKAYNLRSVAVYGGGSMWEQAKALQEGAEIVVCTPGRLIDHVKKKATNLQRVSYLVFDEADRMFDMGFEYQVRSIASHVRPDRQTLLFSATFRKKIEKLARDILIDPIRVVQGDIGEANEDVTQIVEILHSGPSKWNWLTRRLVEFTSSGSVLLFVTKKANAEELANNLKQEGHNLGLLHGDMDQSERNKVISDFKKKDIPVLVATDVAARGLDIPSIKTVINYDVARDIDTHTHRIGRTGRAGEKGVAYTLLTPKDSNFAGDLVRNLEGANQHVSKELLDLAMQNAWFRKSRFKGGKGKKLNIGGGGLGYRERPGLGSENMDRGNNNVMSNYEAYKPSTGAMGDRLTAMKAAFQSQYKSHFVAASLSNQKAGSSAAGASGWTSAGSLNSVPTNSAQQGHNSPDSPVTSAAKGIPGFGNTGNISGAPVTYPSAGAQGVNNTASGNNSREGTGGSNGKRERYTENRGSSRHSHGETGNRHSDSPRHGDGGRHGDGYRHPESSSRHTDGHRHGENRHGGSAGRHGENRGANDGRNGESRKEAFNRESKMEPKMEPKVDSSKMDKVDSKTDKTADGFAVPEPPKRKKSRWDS

The next test addresses T4, ADP/ATP translocase 2 (Homo sapiens, UniProt P05141).
T4 sequence (P05141 whole entry): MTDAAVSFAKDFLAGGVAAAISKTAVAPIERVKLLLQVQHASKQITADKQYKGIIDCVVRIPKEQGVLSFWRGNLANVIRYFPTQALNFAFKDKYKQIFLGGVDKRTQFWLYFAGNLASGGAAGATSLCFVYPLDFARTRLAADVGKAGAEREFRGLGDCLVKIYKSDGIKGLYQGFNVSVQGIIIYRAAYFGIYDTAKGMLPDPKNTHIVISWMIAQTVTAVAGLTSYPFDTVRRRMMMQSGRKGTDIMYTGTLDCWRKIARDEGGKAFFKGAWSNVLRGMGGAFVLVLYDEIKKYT

The target in test [9] is Receptor-interacting serine/threonine-protein kinase 2 (Homo sapiens, UniProt O43353).
Sequence of Receptor-interacting serine/threonine-protein kinase 2 (O43353 whole entry): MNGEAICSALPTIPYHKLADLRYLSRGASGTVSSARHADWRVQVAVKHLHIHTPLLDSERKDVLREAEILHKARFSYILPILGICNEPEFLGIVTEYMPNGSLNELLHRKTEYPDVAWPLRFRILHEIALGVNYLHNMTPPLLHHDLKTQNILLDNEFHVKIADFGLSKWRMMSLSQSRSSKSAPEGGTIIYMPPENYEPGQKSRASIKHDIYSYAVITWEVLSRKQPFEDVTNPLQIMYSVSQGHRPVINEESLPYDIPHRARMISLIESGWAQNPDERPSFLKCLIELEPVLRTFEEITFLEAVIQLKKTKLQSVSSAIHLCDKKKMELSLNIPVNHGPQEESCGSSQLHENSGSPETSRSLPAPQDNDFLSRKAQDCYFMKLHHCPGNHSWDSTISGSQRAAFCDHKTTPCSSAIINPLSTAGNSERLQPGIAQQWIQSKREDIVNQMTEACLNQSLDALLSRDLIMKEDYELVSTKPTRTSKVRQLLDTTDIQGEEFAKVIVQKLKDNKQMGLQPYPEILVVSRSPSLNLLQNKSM
The target of test [10] is Elongation factor Tu, mitochondrial (Homo sapiens, UniProt P49411).
The target of test [11] is Mitogen-activated protein kinase 7 (Homo sapiens, UniProt Q13164).
Also: in the data inactive means no Kd found up to 30 µM.

Sequence of Tyrosine-protein kinase ABL1 (P00519 whole entry): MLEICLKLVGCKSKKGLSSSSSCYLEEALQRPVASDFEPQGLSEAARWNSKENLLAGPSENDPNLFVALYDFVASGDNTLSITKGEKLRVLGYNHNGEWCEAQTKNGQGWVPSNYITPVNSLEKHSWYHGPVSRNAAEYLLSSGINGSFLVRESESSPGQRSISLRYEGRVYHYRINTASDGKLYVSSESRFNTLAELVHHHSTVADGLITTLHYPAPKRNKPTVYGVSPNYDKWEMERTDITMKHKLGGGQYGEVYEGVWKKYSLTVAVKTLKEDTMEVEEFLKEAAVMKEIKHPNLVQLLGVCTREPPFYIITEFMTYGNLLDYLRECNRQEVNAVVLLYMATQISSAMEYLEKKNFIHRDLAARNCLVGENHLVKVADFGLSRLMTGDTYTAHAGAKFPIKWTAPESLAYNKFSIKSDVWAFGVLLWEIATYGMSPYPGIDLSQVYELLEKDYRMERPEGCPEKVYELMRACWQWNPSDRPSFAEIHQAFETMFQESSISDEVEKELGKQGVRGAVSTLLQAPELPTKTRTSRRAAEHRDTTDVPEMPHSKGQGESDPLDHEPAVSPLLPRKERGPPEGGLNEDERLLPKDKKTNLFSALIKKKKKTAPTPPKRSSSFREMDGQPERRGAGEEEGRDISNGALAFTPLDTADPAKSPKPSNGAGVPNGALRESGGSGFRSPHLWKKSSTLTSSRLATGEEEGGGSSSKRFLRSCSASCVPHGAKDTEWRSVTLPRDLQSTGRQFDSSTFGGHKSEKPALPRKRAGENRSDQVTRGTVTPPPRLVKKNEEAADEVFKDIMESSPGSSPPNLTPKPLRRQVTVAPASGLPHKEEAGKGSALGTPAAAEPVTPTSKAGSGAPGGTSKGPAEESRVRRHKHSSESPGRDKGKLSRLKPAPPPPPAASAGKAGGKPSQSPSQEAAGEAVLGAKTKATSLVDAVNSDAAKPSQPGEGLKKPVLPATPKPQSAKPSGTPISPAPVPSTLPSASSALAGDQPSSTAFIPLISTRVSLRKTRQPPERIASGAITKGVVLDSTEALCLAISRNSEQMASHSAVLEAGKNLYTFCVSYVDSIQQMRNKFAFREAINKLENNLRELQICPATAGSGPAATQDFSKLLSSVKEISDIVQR

Usually Kd stands for the concentration at which binding is half-saturated. With `O=c1[nH]c([C@@H]2CCCN2)nc2c1oc1ccc(Cl)cc12`, the Kd (in [1]; in test [2]; in [3]; in test [4]; on Activin receptor type-1; in test [5]) was > 30 µM (inactive) in each case. Moreover, the Kd (in test [6]; in [7]; in test [8]; at ADP/ATP translocase 2; in [9]; in test [10]) was > 30 µM (inactive) in each case.
`CN1CCN(c2nc(C3=C(c4c[nH]c5ccccc45)C(=O)NC3=O)c3ccccc3n2)CC1` [SOTRASTAURIN]: the Kd (in [1]; in test [2]; in test [3]; in [4]; on Activin receptor type-1; in test [5]) was > 30 µM (inactive) in each case. For the same molecule, the Kd (in [6]; in test [7]; on ADP/ATP translocase 2; in [9]; in test [11]; in test [10]) was > 30 µM (inactive) each time.
Consider `C=CCN(/C=C1/C(=O)O[C@H](COC)[C@@]2(C)C1=C(O)C(=O)C1=C2[C@H](OC(C)=O)C[C@]2(C)C(=O)CC[C@@H]12)CC=C` [SONOLISIB], for which the Kd (in [1]; in test [2]; in [3]; in test [4]; on Activin receptor type-1; in test [5]) was > 30 µM (inactive) throughout. For the same molecule, the Kd (in [6]; in test [7]; at ADP/ATP translocase 2; in test [9]; in [11]; in test [10]) was > 30 µM (inactive) in each case.
Turning to `COc1cc(Nc2ncc(F)c(Nc3ccc4c(n3)N(COP(=O)(O)O)C(=O)C(C)(C)O4)n2)cc(OC)c1OC` [FOSTAMATINIB], the Kd in [1] was > 30 µM (inactive); in test [2], 2.13 µM (active); in [3] it was > 30 µM (inactive); in test [4], > 30 µM (inactive); at Activin receptor type-1 it was > 30 µM (inactive); in test [5] it was > 30 µM (inactive). The Kd (in [6]; in test [7]; at ADP/ATP translocase 2; in [9]; in [11]; in test [10]) was > 30 µM (inactive) throughout.
For the molecule `CC(C)(O)CC(=O)NCCn1ccc2ncnc(Nc3ccc(Oc4cccc(C(F)(F)F)c4)c(Cl)c3)c21` [TAK-285], the Kd (in test [1]; in test [2]; in test [3]; in [4]; at Activin receptor type-1; in [5]) was > 30 µM (inactive) each time. In addition, the Kd (in test [6]; in test [7]; in test [8]; at ADP/ATP translocase 2; in [10]) was > 30 µM (inactive) each time.
Take `Cc1cc(C(=O)Nc2cc(Oc3ccc4nc(NC(=O)C5CC5)cn4n3)ccc2C)n(C)n1` [TAK-593]: the Kd is 0.918 µM (active) in test [1]; > 30 µM (inactive) in [2]; > 30 µM (inactive) in [3]; > 30 µM (inactive) in test [4]; > 30 µM (inactive) on Activin receptor type-1; > 30 µM (inactive) in [5]. For the same molecule, the Kd (in test [6]; in [7]; at ADP/ATP translocase 2; in test [9]; in test [11]; in test [10]) was > 30 µM (inactive) each time.
As to `CCc1nc(C(N)=O)c(Nc2ccc(N3CCC(N4CCN(C)CC4)CC3)c(OC)c2)nc1NC1CCOCC1` [GILTERITINIB], the Kd in test [1] is > 30 µM (inactive); in [2], 0.804 µM (active); in [3] it was > 30 µM (inactive); in test [4], > 30 µM (inactive); at Activin receptor type-1 it was 0.039 µM (active); in test [5] it was > 30 µM (inactive). Further, the Kd in [6] is 0.432 µM (active); in [7] it was > 30 µM (inactive); at ADP/ATP translocase 2, 0.451 µM (active); in [9], 0.482 µM (active); in test [11], > 30 µM (inactive); in test [10], 0.464 µM.
On to `Cc1cc(-c2cc(OC(=O)c3ccccc3)ccc2Cl)cc2nnc(Nc3ccc(OCCN4CCCC4)cc3)nc12` [TG100-801], for which the Kd in [1] is 10.7 µM (active); in [2], > 30 µM (inactive); in test [3], > 30 µM (inactive); in test [4], > 30 µM (inactive); at Activin receptor type-1, > 30 µM (inactive); in test [5] it was > 30 µM (inactive). Further, the Kd in test [6] was > 30 µM (inactive); in [7] it was > 30 µM (inactive); at ADP/ATP translocase 2, > 30 µM (inactive); in test [9], 0.192 µM (active); in [11], > 30 µM (inactive); in test [10], > 30 µM (inactive).
As to `Cc1c(Cn2c(C)nc3c(C(=O)O)cc(N4CCOCC4)cc32)cccc1C(F)(F)F` [GSK-2636771], the Kd (in [1]; in test [2]; in test [3]; in test [4]; on Activin receptor type-1; in [5]) was > 30 µM (inactive) in each case. Besides, the Kd (in [6]; in test [7]; at ADP/ATP translocase 2; in test [9]; in test [11]; in test [10]) was > 30 µM (inactive) in each case.
